The target of the experiment is T1, human 11beta-HSD1 (Homo sapiens, UniProt P28845).
T1 construct: made in house; host or cells: HEK293 cells (ATCC CRL-1573), transient transfection; microsomal fraction
Kind of experiment: Microsome assay (cortisone to cortisol conversion, ELISA-based cortisol detection). As to conditions: microsomes from HEK293 cells transiently expressing human 11beta-HSD1; Cortisone 50-200 nM, NADPH 1 mM; 60 min at 37° C.; read-out: 11-beta-HSD 1 IC50. The experiment is classed as biochemical. As to the method:
Transient Expression and Partial Purification:
The cDNA encoding the human 11beta-HSD1 protein was cloned into the expression vector pcDNA3 ([…]). This construct (for details see Alex Odermatt et al.; J Biol. Chem.,1999, Vol. 274, Issue 40, 28762-28770) was used to transiently express the protein in HEK293 cells (ATCC number: CRL-1573, described in Graham, F. L., Smiley, J., Russell, W. C., Nairn, R.; (1977)) using lipofectamine. 48 h after transfection cells were washed twice with ice-cold PBS (Phosphate buffered Saline). To 1 volume of cell suspension in PBS 2 volumes of ice-cold lysis buffer (50 mM Tris; pH7.5; 1 mM EDTA; 100 mM NaCl) were added. The cells were lysed by Potter-homogenization (20 strokes). The resulting homogenate was sonicated wit a tip sonicator (10% output; 2×30 sec.) and cleared by a low speed centrifugation (10 min×9000 g; 4° C.). […]
Microsomes isolated from HEK293 cells transiently expressing human 11beta-HSD1 (for details see above) were incubated in assay buffer (100 mM NaCl; 1 mM EDTA; 1 mM EGTA; 1 mM MgCl; 250 mM Sucrose; 20 mM Tris pH 7.4; Cortisone 50-200 nM and NADPH 1 mM) together with different concentrations of test substances. […] The amount of Cortisol produced in this assay was determined using a commercially available, ELISA-based Cortisol-detection kit (Distributed by Assay Design, Inc.). […]

T1 sequence (P28845 whole entry): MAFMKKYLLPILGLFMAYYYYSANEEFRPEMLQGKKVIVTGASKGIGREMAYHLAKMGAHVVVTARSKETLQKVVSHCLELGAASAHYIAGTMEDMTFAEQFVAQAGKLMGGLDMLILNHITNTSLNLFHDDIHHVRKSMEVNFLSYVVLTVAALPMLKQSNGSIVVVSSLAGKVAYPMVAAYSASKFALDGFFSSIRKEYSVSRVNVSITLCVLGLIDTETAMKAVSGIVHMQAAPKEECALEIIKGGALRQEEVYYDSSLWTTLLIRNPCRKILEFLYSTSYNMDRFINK

Broadly, the IC50 is the midpoint of a concentration-inhibition curve. For `Cc1c(-c2cc3c(nn2)[C@@]2(C)CC[C@@H]3C2(C)C)cnn1-c1ccccc1` [Example 1, (1S,8R)-1,11,11-Trimethyl-5-(5-methyl-1-phenyl-1H-pyrazol-4-yl)-3,4-diaza-tricyclo[6.2.1.0^2,7]undeca-2(7),3,5-triene], the IC50 worked out at 30 nM. For `FC(F)(F)c1ccccc1-c1cc2c(nn1)CCCCCC2` [Example 41, 3-(2-Trifluoromethyl-phenyl)-5,6,7,8,9,10-hexahydro-cycloocta[c]pyridazine], the IC50 was 3 nM.
